Results from ChEMBL document CHEMBL1201862, “PubChem BioAssay data set” (2004).
Calls of active or inactive are those of the source.

What was measured:
Escherichia coli [1] = experiment: microbe, parasite or virus in culture
cells = type: functional
[2] = Trypanosoma cruzi growth suppression in host cells – NIH3T3 host cells, beta-gal luminescence, confirmation (AID 2044); type: functional, cell-based;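 also: intracellular parasites grown in NIH/3T3 mouse fibroblasts as host cells; luminescent beta-galactosidase reporter signal from transgenic T. cruzi replicating inside host cells; inhibitors lower the luminescence signal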
[3] = NIH3T3 cell viability loss – ATP luminescence, mouse fibroblasts, counter-screen, dose response (AID 2010); type: functional, cell-based;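 also: cells exposed to compound for about 90 hours before reading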
Vero [4] = experiment: cells; type: functional, cell-based; settings: Chlorocebus sabaeus
[5] = biological target: Delta-type opioid receptor (Homo sapiens, UniProt P41143); experiment: Counterscreen for agonists of heterodimerization of the mu 1 (OPRM1) and delta 1 (OPRD1) opioid receptors: Luminescence-based cell-based high throughput dose response assay to identify agonists of OPRD1 homodimerization. [Related pubchem assays (depositor defined):AID504326, AID504355, AID504692, AID504904, AID504905]; type: functional
Sequence of Delta-type opioid receptor (P41143 whole entry): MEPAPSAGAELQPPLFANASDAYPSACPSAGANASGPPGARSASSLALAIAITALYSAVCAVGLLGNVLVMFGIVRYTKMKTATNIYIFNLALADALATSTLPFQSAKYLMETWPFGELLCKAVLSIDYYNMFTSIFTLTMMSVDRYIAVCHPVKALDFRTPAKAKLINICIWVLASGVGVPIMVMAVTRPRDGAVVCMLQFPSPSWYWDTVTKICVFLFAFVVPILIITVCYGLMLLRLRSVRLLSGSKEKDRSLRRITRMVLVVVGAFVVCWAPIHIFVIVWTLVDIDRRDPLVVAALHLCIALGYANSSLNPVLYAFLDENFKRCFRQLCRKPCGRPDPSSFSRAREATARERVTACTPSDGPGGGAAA

Mu-type opioid receptor = Mu-type opioid receptor (Homo sapiens, UniProt P35372); experiment: Counterscreen for agonists of heterodimerization of the mu 1 (OPRM1) and delta 1 (OPRD1) opioid receptors: Luminescence-based cell-based high throughput dose response assay to identify agonists of OPRM1 homodimerization.; type: functional;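 also: U2OS cells expressing OPRM1 and beta-arrestin as split beta-galactosidase partners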
Sequence of Mu-type opioid receptor (P35372 whole entry): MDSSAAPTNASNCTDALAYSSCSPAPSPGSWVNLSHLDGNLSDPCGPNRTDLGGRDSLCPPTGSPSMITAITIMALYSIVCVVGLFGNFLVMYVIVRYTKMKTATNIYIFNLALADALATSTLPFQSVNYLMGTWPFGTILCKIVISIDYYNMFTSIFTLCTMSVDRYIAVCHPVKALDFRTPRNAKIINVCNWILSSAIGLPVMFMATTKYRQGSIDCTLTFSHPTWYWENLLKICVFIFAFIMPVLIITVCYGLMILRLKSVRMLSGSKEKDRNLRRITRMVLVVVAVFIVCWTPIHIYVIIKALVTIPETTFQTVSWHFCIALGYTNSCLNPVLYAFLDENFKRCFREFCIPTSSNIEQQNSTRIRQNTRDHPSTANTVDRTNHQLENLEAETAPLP

[6] = biological target: T1, Short transient receptor potential channel 4 (Mus musculus, UniProt Q9QUQ5); experiment: calcium entry via TRPC4 opening agents – cell-based, HEK293 TRPC4/mu-opioid, Fluo-4 calcium, dose response (AID 434937); type: functional
T1 sequence (Q9QUQ5 whole entry): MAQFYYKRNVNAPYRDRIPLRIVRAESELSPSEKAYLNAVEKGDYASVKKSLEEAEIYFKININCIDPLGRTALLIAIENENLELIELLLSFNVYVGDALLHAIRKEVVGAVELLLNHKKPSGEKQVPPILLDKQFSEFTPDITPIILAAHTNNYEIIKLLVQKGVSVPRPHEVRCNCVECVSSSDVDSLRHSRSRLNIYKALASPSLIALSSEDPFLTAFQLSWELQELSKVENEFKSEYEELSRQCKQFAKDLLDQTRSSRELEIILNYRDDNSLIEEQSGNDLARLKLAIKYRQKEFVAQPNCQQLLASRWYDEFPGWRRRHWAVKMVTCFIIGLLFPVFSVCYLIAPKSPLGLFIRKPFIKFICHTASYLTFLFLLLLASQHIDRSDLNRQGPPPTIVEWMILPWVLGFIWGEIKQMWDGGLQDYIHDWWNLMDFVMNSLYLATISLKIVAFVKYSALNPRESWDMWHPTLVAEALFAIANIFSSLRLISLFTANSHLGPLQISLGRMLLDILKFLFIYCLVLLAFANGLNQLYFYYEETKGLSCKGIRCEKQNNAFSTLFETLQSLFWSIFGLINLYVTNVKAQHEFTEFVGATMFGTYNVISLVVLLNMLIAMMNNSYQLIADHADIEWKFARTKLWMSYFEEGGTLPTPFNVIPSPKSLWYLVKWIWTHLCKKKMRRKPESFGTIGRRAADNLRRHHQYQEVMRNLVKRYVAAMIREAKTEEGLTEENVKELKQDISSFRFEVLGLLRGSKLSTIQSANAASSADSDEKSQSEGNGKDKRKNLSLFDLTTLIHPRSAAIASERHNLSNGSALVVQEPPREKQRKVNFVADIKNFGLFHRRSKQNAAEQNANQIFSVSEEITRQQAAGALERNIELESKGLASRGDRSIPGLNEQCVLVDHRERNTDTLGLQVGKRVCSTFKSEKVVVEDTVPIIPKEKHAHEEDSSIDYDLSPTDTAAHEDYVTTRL

[7] = biological target: 5-hydroxytryptamine receptor 5A (Homo sapiens, UniProt P47898); experiment: Counterscreen for agonists of OPRM1-OPRD1 heterodimerization: luminescence-based cell-based high throughput dose response assay to identify agonists of 5-hydroxytryptamine (serotonin) 5A receptor (HTR5A). [Related pubchem assays (depositor defined):AID504326, AID504355, AID504692, AID504904, AID504905]; type: functional
Sequence of 5-hydroxytryptamine receptor 5A (P47898 whole entry): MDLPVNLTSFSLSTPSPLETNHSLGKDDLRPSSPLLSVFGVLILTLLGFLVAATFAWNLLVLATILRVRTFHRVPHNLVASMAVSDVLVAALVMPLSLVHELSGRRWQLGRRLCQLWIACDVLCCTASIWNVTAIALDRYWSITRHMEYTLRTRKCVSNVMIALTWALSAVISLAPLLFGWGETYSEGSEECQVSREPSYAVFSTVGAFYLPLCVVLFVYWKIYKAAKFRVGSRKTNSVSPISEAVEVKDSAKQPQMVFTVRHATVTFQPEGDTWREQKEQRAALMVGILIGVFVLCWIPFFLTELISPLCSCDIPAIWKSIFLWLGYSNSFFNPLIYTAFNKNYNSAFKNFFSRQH

[8] = biological target: T2, Replicative DNA helicase DnaB (Mycobacterium tuberculosis, UniProt P9WMR3); experiment: DnaB intein splicing inhibitors, dose response, biochemical, cell-free fluorescence (AID 449749); type: functional
T2 sequence (P9WMR3 whole entry): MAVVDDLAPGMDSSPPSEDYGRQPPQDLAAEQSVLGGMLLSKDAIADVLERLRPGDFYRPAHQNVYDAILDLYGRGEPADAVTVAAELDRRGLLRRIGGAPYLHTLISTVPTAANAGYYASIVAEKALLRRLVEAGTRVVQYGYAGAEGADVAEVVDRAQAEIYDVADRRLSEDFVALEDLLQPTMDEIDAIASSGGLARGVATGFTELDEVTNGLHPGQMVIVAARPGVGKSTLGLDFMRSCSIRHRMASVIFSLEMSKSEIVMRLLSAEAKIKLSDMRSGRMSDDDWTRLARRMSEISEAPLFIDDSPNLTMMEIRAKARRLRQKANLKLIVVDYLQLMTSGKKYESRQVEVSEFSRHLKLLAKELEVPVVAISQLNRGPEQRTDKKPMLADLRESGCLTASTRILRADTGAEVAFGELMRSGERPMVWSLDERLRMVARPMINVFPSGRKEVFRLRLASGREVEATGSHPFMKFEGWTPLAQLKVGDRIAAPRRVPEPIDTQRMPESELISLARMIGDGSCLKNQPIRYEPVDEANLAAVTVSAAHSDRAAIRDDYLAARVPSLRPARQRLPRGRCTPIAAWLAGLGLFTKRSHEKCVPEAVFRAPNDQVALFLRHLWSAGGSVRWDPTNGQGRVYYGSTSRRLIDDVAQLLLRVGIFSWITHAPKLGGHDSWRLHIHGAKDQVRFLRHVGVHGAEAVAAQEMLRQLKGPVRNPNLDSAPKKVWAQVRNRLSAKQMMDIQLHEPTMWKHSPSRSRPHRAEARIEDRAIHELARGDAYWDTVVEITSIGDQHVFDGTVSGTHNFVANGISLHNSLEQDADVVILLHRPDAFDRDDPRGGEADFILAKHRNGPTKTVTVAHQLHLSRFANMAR

Fatty acid synthase [9] = biological target: T3, Fatty acid synthase (Homo sapiens, UniProt P49327); experiment: inhibition of human FAS-TE enzyme activity – biochemical, endpoint fluorescence intensity, uHTS hits, dose response (AID 624327); type: functional;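 also: fluorescence from hydrolysis of an O-methyl fluorescein acyl ester substrate by the enzyme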
T3 sequence (P49327 whole entry): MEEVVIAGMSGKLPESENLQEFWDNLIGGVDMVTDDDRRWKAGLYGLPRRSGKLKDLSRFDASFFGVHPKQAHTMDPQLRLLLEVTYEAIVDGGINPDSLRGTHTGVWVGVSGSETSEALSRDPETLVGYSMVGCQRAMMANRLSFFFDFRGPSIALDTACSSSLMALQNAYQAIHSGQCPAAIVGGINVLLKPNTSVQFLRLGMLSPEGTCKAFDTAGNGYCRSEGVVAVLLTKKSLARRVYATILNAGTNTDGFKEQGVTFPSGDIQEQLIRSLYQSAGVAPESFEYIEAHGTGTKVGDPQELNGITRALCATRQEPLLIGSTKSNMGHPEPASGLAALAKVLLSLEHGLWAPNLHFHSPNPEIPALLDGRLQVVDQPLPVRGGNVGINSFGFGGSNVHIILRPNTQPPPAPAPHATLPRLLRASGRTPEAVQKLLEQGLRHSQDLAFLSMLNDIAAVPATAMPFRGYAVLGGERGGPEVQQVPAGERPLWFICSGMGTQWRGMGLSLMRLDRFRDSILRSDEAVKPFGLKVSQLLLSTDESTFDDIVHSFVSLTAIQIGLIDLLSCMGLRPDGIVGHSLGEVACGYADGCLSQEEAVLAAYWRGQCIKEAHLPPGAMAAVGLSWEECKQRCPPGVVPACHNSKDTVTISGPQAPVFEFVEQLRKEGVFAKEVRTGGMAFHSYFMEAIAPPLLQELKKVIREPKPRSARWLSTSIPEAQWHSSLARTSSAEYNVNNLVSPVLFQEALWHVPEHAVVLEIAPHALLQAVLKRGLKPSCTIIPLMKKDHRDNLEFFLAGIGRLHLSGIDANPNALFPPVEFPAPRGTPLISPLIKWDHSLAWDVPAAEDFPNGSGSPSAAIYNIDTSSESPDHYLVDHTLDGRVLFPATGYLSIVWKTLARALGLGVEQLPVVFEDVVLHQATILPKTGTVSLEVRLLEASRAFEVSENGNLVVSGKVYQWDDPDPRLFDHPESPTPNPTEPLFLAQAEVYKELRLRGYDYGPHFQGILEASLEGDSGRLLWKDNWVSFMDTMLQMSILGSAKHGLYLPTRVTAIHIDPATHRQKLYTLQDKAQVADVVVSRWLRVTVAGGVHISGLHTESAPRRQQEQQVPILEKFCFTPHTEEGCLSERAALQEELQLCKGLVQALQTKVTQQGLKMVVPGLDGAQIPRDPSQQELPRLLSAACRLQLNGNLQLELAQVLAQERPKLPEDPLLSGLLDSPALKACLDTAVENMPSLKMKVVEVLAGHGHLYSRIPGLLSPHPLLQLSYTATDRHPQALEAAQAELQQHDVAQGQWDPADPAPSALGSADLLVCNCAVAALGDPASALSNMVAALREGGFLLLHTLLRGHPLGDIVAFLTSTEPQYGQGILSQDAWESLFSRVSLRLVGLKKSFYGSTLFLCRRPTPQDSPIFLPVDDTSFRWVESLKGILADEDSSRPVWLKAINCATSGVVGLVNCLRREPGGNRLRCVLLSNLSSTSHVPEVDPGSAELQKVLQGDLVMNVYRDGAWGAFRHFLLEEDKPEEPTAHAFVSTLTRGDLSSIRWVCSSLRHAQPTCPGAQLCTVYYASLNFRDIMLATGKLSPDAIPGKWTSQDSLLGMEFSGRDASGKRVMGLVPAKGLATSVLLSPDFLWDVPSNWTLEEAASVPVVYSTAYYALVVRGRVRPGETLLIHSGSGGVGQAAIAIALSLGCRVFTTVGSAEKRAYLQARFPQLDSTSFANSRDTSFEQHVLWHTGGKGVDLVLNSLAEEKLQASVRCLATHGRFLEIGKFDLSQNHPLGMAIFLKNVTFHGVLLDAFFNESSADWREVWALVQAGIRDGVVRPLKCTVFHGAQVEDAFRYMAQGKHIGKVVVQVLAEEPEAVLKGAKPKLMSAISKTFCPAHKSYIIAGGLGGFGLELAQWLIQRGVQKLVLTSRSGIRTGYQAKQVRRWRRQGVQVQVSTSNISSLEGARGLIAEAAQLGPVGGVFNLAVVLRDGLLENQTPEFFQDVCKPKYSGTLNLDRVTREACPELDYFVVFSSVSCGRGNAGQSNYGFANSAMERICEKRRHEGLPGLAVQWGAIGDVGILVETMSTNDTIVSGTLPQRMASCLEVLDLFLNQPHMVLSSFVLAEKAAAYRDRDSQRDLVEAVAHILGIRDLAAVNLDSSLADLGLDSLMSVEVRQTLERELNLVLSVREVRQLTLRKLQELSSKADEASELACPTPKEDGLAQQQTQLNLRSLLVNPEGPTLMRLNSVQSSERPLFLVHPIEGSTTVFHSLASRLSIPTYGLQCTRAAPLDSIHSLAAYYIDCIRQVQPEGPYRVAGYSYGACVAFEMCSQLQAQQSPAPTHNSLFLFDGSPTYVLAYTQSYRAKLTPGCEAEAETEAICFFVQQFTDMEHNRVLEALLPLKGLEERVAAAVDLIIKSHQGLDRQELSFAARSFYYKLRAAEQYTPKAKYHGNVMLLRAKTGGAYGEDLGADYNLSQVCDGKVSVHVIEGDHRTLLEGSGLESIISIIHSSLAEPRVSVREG

HEK293 [10] = experiment: cells; settings: Homo sapiens
HEK293 [11] = experiment: cells; settings: Homo sapiens; remark: listed apart in the source
Fatty acid synthase [12] = biological target: T3, Fatty acid synthase; experiment: inhibition of human FAS-TE enzyme activity – biochemical, kinetic fluorescence intensity, dose response (AID 624326); type: functional;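 also: rate of fluorescence rise from hydrolysis of a fluorogenic O-methyl fluorescein ester substrate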
Protein RecA = biological target: T4, Protein RecA (Mycobacterium tuberculosis, UniProt P9WHJ3); experiment: Fluorescence Cell-Free Homogeneous Dose Retest to Identify Inhibitors of RecA-Intein Splicing Activity. [Related pubchem assays (depositor defined):AID2097, AID2223, AID489010, AID492950]; type: functional
T4 sequence (P9WHJ3 whole entry): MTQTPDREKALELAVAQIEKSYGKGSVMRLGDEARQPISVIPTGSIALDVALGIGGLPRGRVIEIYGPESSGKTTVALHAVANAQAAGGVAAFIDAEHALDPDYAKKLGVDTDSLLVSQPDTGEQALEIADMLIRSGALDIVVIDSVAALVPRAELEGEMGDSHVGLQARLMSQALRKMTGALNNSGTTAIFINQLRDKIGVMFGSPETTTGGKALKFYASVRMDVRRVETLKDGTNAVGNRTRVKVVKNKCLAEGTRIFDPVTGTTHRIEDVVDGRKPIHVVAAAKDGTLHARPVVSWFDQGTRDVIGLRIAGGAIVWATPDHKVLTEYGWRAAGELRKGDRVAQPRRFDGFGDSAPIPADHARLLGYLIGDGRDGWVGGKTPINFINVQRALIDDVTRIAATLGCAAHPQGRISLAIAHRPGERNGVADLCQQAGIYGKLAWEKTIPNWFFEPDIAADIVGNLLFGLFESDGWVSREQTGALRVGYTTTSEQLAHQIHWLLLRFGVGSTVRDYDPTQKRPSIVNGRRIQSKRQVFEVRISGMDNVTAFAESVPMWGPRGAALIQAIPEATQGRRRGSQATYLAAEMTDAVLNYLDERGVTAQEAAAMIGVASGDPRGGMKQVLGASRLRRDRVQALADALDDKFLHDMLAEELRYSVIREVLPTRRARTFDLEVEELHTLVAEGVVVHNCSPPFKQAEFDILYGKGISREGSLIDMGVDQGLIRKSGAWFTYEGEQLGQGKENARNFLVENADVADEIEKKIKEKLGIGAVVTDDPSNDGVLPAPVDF

[13] = viability of uninfected HEp-2 cells – cell-based, HTS, cytotoxicity control for RSV inhibitor project, dose response (AID 2410); type: functional; settings: human respiratory syncytial virus
Vero [14] = experiment: cells; type: functional; settings: Chlorocebus sabaeus
Vero [15] = experiment: mammalian cell viability reduction – secondary assay, cytotoxicity control for West Nile virus antiviral project, dose response (AID 1650); type: functional; settings: Chlorocebus sabaeus
Cytochrome P450 2C19 = Cytochrome P450 2C19 (Homo sapiens, UniProt P33261); experiment: Cytochrome panel assay with activity outcomes. Panel member name: p450-cyp2c19 Compounds with AC50 equal or less than 10 uM are considered active; type: functional
Sequence of Cytochrome P450 2C19 (P33261 whole entry): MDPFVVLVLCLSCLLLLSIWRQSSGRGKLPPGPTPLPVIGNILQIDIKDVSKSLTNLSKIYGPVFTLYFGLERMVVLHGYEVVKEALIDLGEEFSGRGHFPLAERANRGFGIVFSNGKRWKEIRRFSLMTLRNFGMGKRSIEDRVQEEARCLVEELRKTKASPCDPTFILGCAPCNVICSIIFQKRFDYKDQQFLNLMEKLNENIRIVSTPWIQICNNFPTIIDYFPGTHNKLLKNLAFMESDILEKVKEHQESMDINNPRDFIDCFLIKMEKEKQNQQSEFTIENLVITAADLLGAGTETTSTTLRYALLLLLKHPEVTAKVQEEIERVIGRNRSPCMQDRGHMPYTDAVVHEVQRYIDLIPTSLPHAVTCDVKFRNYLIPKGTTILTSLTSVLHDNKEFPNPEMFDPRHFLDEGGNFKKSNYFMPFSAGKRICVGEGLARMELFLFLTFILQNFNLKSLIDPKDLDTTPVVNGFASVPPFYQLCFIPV

Cytochrome P450 2C9 = Cytochrome P450 2C9 (Homo sapiens, UniProt P11712)
Sequence of Cytochrome P450 2C9 (P11712 whole entry): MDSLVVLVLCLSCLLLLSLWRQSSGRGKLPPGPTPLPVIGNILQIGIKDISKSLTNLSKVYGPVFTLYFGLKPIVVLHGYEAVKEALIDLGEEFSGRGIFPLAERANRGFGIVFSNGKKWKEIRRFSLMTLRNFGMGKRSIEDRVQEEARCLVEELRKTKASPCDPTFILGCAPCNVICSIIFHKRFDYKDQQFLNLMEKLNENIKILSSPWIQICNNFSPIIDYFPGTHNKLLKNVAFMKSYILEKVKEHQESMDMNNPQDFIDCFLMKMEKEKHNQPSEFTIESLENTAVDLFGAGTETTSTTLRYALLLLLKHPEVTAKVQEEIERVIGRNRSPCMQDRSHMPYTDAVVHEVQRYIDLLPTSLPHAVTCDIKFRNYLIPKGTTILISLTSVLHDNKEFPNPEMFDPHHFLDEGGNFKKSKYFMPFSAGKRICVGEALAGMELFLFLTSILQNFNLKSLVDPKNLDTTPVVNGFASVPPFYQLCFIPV

Cytochrome P450 1A2 = biological target: T5, Cytochrome P450 1A2 (Homo sapiens, UniProt P05177);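 also: PubChem cytochrome P450 panel assay, CYP1A2 panel member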
T5 sequence (P05177 whole entry): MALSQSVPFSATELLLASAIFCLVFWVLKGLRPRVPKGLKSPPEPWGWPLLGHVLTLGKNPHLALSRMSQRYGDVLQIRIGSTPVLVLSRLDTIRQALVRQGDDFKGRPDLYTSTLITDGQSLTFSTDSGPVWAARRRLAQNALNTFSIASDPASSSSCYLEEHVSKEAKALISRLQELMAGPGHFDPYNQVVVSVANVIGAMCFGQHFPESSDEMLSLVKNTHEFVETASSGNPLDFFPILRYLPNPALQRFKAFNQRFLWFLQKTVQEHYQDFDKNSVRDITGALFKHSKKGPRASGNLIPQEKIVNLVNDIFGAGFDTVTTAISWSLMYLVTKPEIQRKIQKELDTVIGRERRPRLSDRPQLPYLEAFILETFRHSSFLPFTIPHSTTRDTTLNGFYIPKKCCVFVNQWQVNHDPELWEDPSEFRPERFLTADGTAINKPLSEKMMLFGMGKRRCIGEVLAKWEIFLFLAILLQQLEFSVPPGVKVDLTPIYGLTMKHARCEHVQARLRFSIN

Escherichia coli [16] = experiment: microbe, parasite or virus in culture; remark: listed apart in the source
[17] = biological target: T1, Short transient receptor potential channel 4; experiment: SAR Analysis for the identification of selective inhibits of the transient receptor potential cation channel C4 (TRPC4): Automated Electrophysiology_2. [Related pubchem assays (depositor defined):AID2256]; type: functional

CCCCOCC1CN(c2ccccc2)C(=O)CS1 (stereo unspecified)
AC50 (Escherichia coli [1]): 20.9 µM (active)

O=C1c2cccc3cc([N+](=O)[O-])cc(c23)C(=O)N1c1ccccc1O
IC50 (cells): > 50 µM (active)
EC50 [2]: 0.354 µM (active)
EC50 [3]: 9.05 µM (active)
IC50 (Vero [4]): 2.35 µM (active)

CCOC(=O)C1(CC2CCCCO2)CCN(Cc2c(C)cc(C)cc2-n2cccn2)CC1 (stereo unspecified)
EC50 [5]: > 92.5 µM (inactive)
EC50 (Mu-type opioid receptor): 15.5 µM (inactive)
EC50 [6]: 0.0293 µM (active)
EC50 [7]: > 92.5 µM (inactive)

CCc1cccc(CC)c1NC(=O)/C(C#N)=C/c1ccccc1C(F)(F)F
AC50 [8]: 4.45 µM (active)
IC50 (Fatty acid synthase [9]): 7.72 µM (active)
EC50 (HEK293 [10]): > 59.6 µM (inactive)
EC50 (HEK293 [11]): > 59.6 µM (inactive)
IC50 (Fatty acid synthase [12]): 4.74 µM (active)
EC50 (Protein RecA): 11.7 µM (active)

COc1ccc(-c2csc(N(CCCN(C)C)C(=O)c3cccs3)n2)cc1
EC50 [5]: > 92.5 µM (inactive)
EC50 (Mu-type opioid receptor): > 92.5 µM (inactive)
EC50 [7]: > 92.5 µM (inactive)

CC1(C)COC(/C=C/c2cccc([N+](=O)[O-])c2)=N1
CC50 [13]: 9.78 µM (active)
CC50 (Vero [14]): 15.1 µM (active)
IC50 (Vero [4]): 21.5 µM (active)
CC50 (Vero [15]): 12.6 µM (active)

CS(=O)(=O)N1CCC2(CC1)CN(c1ccc(-c3ccccc3)cc1)C2
AC50 (Cytochrome P450 2C19): inconclusive
AC50 (Cytochrome P450 2C9): inconclusive
AC50 (Cytochrome P450 1A2): inconclusive

COc1ccc(C(=O)C2(C)N(O)C(C)C(c3cccs3)=[N+]2[O-])cc1 (stereo unspecified)
AC50 (Escherichia coli [16]): > 380 µM (inactive)

COc1cc2nc(N3CCN(C(=O)[C@H]4COc5ccccc5O4)CC3)nc(N)c2cc1OC.CS(=O)(=O)O
AC50 (Cytochrome P450 2C19): inactive
AC50 (Cytochrome P450 1A2): inactive

COc1ccccc1N1CCN(c2cc(C)c3ccccc3n2)CC1
IC50 [17]: 9.89 µM (active)

O=C(Nc1ccccc1Cl)c1ccccc1CC(O)(c1ccccc1)c1ccccc1
EC50 (HEK293 [10]): > 59.7 µM (inactive)
EC50 (HEK293 [11]): > 59.7 µM (inactive)
